Measured values taken from PubChem BioAssay (NCI).
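GI50 is the concentration that inhibits growth by half. TGI: total growth inhibition.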

Key:
Experiment in all cases: growth of human tumour cells (NCI), 384-well format
[1] = test system: BT-549 breast
[2] = test system: 786-0 renal
[3] = test system: NCI-H460 NSCLC
[4] = test system: SN12C renal
[5] = test system: PC-3 prostate
[6] = test system: HCT-116 colon
[7] = test system: LOX IMVI melanoma
[8] = test system: SF-295 CNS
[9] = test system: EKVX NSCLC
[10] = test system: HCT-15 colon
[11] = test system: OVCAR-4 ovarian
[12] = test system: SK-MEL-28 melanoma
[13] = test system: COLO 205 colon

C1=C/COCc2cc(ccc2OCCN2CCCC2)Nc2nccc(n2)-c2cccc(c2)COC/1
GI50 [1]: 1790 nM
TGI [1]: 3200 nM
GI50 [2]: 1260 nM
TGI [2]: 2620 nM
GI50 [3]: 923 nM
TGI [3]: 2220 nM
GI50 [4]: 704 nM
TGI [4]: 2010 nM
GI50 [5]: 1270 nM
TGI [5]: 3250 nM
GI50 [6]: 692 nM
TGI [6]: 2360 nM
GI50 [7]: 842 nM
TGI [7]: 2080 nM
GI50 [8]: 1810 nM
TGI [8]: 3310 nM
GI50 [9]: 1560 nM
TGI [9]: 3370 nM
GI50 [10]: 802 nM
TGI [10]: 2310 nM
GI50 [11]: 1760 nM
TGI [11]: 3610 nM
GI50 [12]: 1190 nM
TGI [12]: 2440 nM
GI50 [13]: 1090 nM
TGI [13]: 2470 nM
